Like-named read-outs stand apart in the source and are kept apart here.
What was measured:
Assay type in all cases: cell-based
[1] = target: T1, human TLR9 (Homo sapiens, UniProt Q9NR96); assay: TLR9 inhibition reporter assay (HEK-Blue cells, secreted embryonic alkaline phosphatase reporter)
T1 construct: host or cells: HEK-Blue cells (HEK293-derived reporter line)
T1 sequence (Q9NR96 26-1032): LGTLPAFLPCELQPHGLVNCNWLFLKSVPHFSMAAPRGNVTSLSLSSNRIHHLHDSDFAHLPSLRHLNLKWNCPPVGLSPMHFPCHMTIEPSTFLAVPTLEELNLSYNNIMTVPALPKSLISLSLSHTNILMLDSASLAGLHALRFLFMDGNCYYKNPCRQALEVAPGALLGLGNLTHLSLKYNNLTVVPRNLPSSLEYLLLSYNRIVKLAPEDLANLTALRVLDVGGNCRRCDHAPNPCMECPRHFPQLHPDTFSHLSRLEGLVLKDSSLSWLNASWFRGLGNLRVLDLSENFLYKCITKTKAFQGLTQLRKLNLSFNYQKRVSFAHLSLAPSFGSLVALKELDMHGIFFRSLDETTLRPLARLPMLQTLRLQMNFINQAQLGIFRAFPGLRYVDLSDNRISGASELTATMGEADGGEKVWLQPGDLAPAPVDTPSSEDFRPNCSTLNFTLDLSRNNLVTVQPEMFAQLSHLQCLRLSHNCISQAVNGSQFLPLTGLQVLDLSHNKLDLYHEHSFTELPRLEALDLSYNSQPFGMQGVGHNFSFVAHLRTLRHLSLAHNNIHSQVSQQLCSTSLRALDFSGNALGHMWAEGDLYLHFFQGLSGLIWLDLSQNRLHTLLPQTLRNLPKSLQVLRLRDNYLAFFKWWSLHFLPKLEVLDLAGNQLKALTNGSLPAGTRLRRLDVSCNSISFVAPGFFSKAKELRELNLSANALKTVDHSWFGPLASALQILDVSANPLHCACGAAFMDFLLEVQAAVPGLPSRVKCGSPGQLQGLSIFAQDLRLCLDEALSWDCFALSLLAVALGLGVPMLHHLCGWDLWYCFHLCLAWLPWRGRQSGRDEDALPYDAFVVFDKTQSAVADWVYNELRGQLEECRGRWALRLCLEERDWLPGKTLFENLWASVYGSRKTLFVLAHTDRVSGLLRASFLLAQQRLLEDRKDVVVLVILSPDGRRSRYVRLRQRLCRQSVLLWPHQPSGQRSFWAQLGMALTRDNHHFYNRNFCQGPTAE
Method in brief: (§1)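 Steps: seed receptor-specific HEK-Blue cells; add compound, 0.05 nM–50 μM; wait 30 min at room temperature; add final gardiquimod 7.5 μM, R848 15.9 μM or ODN2006 5 nM for TLR7, TLR8 or TLR9; incubate 22 h at 37 °C; detect NF-κB/AP-1-driven SEAP.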

[2] = target: T2, human TLR8 (Homo sapiens, UniProt Q9NR97); assay: TLR8 inhibition reporter assay (HEK-Blue cells, secreted embryonic alkaline phosphatase reporter); settings: HEK-Blue cells overexpressing human TLR8, stimulated with R848 15.9 μM; read-out: TLR 8 IC50
T2 construct: host or cells: HEK-Blue cells (HEK293-derived reporter line)
T2 sequence (Q9NR97 27-1041): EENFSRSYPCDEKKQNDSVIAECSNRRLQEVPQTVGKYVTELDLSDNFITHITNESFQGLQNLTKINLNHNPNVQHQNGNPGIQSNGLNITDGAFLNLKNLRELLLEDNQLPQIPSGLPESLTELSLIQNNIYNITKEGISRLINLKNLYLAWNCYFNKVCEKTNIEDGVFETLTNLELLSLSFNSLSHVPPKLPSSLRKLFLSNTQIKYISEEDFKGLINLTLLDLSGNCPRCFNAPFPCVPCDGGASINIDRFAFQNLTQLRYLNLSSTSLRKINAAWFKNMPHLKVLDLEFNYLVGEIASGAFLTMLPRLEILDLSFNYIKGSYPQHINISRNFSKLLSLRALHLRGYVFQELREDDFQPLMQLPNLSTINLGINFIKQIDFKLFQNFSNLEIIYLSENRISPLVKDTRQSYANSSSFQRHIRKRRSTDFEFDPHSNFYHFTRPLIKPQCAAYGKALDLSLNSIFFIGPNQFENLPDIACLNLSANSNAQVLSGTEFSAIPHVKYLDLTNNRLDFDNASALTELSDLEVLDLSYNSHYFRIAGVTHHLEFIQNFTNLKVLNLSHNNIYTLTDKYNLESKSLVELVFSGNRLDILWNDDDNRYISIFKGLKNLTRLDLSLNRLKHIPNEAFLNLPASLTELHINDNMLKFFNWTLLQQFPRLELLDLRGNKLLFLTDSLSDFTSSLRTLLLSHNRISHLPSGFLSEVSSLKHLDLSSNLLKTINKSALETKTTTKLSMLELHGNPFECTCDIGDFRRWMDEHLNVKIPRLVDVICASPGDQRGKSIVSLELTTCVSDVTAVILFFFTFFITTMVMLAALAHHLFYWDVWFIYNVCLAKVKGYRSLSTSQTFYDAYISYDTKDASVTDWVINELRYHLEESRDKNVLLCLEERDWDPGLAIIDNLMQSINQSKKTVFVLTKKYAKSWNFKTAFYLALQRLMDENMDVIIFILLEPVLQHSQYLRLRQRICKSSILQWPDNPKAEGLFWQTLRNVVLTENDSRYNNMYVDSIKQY
Method in brief: as §1

[3] = target: T3, human TLR7 (Homo sapiens, UniProt Q9NYK1); assay: TLR7 inhibition reporter assay (HEK-Blue cells, secreted embryonic alkaline phosphatase reporter); settings: HEK-Blue cells overexpressing human TLR7, stimulated with gardiquimod 7.5 μM; read-out: TLR 7 IC50
T3 construct: host or cells: HEK-Blue cells (HEK293-derived reporter line)
T3 sequence (Q9NYK1 27-1049): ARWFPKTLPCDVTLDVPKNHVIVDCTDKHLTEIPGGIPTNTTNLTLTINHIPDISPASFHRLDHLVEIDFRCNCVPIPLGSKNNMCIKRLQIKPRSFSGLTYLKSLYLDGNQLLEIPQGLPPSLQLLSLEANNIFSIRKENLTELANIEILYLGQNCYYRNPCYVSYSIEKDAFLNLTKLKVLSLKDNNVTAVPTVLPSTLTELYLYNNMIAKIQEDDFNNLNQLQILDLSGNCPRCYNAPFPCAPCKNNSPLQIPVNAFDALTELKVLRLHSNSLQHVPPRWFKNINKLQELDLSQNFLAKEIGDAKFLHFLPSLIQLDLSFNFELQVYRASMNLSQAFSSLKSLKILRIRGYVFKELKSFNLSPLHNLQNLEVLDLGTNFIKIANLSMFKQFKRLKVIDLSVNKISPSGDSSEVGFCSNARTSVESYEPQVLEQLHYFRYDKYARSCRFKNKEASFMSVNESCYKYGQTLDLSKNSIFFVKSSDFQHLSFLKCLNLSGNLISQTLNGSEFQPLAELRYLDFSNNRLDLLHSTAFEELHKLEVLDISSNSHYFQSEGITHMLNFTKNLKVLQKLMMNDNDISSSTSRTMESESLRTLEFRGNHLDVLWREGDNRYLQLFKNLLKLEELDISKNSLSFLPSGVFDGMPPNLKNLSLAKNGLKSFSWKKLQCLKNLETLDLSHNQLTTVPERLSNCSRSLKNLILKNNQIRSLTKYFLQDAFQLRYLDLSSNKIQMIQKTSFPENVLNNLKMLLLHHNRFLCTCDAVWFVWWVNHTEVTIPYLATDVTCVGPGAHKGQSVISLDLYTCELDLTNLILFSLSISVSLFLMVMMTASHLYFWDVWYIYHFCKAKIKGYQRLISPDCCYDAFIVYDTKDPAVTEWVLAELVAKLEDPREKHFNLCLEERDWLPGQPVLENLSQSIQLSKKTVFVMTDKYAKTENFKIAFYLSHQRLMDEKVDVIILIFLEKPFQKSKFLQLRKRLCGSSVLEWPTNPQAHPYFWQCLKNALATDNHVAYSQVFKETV
Method in brief: as §1

[4] = HEK-Blue cells overexpressing human TLR9, stimulated with ODN2006 5 nM, read-out: TLR 9 IC50
[5] = HEK-Blue human TLR9 reporter cells
[6] = HEK-Blue cells overexpressing human TLR9, stimulated with ODN2006 5 nM, 22 hour incubation, reporter readout

IC50 [1, 4] [nM] | IC50 [1, 5] [nM] | IC50 [2] [nM] | IC50 [3] [nM] | IC50 [1, 6] [nM] | SMILES
111 | 110 | 18400 | 2000 |  | CS(=O)(=O)c1ccc(-c2nc3c(F)cc(C4CCN(C5CC6CCC(C5)N6C5CCC5)CC4)cc3n2C2CC2)cc1 (single isomer, unassigned) [Example 327, 6-(1-(8-cyclobutyl-8-azabicyclo[3.2.1]octan-3-yl)piperidin-4-yl)-1-cyclopropyl-4-fluoro-2-(4-(methylsulfonyl)phenyl)-1H-benzo[d]imidazole]
 |  | 1100 | 5900 | 56 | COc1ccc(-c2nc3ccc(C4CCN(C5CCN(C(C)C)CC5)CC4)cc3n2C)cc1OC [Example 1, 2-(3,4-dimethoxyphenyl)-6-(1′-isopropyl-[1,4′-bipiperidin]-4-yl)-1-methyl-1H-benzo[d]imidazole]
123 |  | > 50000 | 16000 | 120 | COc1ccc(-c2nc3ccc(C4CCN(C5CCN(C(C)C)CC5)CC4)cc3[nH]2)cc1OC [Example 2, 2-(3,4-dimethoxyphenyl)-6-(1′-isopropyl-[1,4′-bipiperidin]-4-yl)-1H-benzo[d]imidazole]
253 |  | > 50000 | 4700 | 250 | COc1ccc(-c2nc3ccc(C4CCN(C5CCN(C(C)C)CC5)CC4)cc3n2CC(F)F)cc1OC [Example 4, 1-(2,2-difluoroethyl)-2-(3,4-dimethoxyphenyl)-6-(1′-isopropyl-[1,4′-bipiperidin]-4-yl)-1H-benzo[d]imidazole]
 |  | 840 | 6800 | 250 | COc1ccc(-c2nc3cc(C4CCN(C5CCN(C(C)C)CC5)CC4)ccc3n2C)cc1OC [Example 5, 2-(3,4-dimethoxyphenyl)-5-(1′-isopropyl-[1,4′-bipiperidin]-4-yl)-1-methyl-1H-benzo[d]imidazole]
191 |  | 29000 | 2900 | 190 | COc1ccc(-c2nc3cc(C4CCN(C5CCN(C(C)C)CC5)CC4)ccc3n2C(C)C)cc1OC [Example 6, 2-(3,4-dimethoxyphenyl)-1-isopropyl-5-(1′-isopropyl-[1,4′-bipiperidin]-4-yl)-1H-benzo[d]imidazole]

Further lines, the compound ahead of its results:

SMILES | IC50 [1, 4] [nM] | IC50 [1, 5] [nM] | IC50 [2] [nM] | IC50 [3] [nM] | IC50 [1, 6] [nM]
CS(=O)(=O)c1ccc(-c2nc3c(F)cc(C4CCN(C5CC6CCC(C5)N6CC5CC5)CC4)cc3n2C2CC2)cc1 (single isomer, unassigned) [Example 325, 1-cyclopropyl-6-(1-(8-(cyclopropylmethyl)-8-azabicyclo[3.2.1]octan-3-yl)piperidin-4-yl)-4-fluoro-2-(4-(methylsulfonyl)phenyl)-1H-benzo[d]imidazole] | 15 | 15 | > 50000 | 8200 | 
CS(=O)(=O)c1ccc(-c2nc3c(F)cc(C4CCN(C5CC6CCC(C5)N6C5CCC5)CC4)cc3n2C2CC2)cc1 (single isomer, unassigned) [Example 326, 6-(1-(8-cyclobutyl-8-azabicyclo[3.2.1]octan-3-yl)piperidin-4-yl)-1-cyclopropyl-4-fluoro-2-(4-(methylsulfonyl)phenyl)-1H-benzo[d]imidazole] | 23 | 23 | > 50000 | 1300 | 
COc1cc(-c2nc3c(C)cc(C4CCN(C5CC6CCC(C5)N6C5CCC5)CC4)cc3n2C)cn2ncnc12 (single isomer, unassigned) [Example 355, 6-(6-(1-(8-cyclobutyl-8-azabicyclo[3.2.1]octan-3-yl)piperidin-4-yl)-1,4-dimethyl-1H-benzo[d]imidazol-2-yl)-8-methoxy-[1,2,4]triazolo[1,5-a]pyridine] | 11 | 11 | 3100 | 200 | 
COc1ccc(-c2nc3ccc(C4CCN(C5CCN(C(C)C)CC5)CC4)cc3n2C(C)C)cc1OC [Example 3, 2-(3,4-dimethoxyphenyl)-1-isopropyl-6-(1′-isopropyl-[1,4′-bipiperidin]-4-yl)-1H-benzo[d]imidazole] | 169 |  | > 50000 | 280 | 170
COc1ccc(-c2nc3cc(C4CCN(C5CCN(C(C)C)CC5)CC4)ccc3n2CC(F)F)cc1OC [Example 7, 1-(2,2-difluoroethyl)-2-(3,4-dimethoxyphenyl)-5-(1′-isopropyl-[1,4′-bipiperidin]-4-yl)-1H-benzo[d]imidazole] | 283 |  | > 50000 | 5700 | 280
COc1ccc(-c2nc3cc(C4CCN(C5CCN(C(C)C)CC5)CC4)c(C(F)(F)F)cc3[nH]2)cc1OC [Example 10, 2-(3,4-dimethoxyphenyl)-5-(1′-isopropyl-[1,4′-bipiperidin]-4-yl)-6-(trifluoromethyl)-1H-benzo[d]imidazole] | 244 |  | > 50000 | > 50000 | 240
